According to US20230085307A1, “PYRIDAZINONE COMPOUND AND HERBICIDE” (NISSAN CHEMICAL CORPORATION, priority 2019, published 2023):

How the values were obtained:
persian speedwell = experiment: Test Example 5: herbicidal effect by foliage application, plastic box (Table 20, symbol R); assay type: in vivo, Persian speedwell (Veronica persica); settings: for Herbicidal effect by foliage application, R: persian speedwell: amount of applied herbicide 320 g/ha
Procedure, shortened: (§1)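 Post-emergence foliar test in sterilized diluvial soil. Compound applied as water-diluted emulsion at a predetermined rate to 14-day-old plants; evaluation at three weeks.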

barnyard grass [1] = experiment: Test Example 3: herbicidal effect by foliage application, Wagner pot (Table 18, symbol H); assay type: in vivo, barnyard grass (Echinochloa crus-galli); settings: for herbicidal effect on barnyard grass (H): 320 g/ha
Procedure, shortened: (§2)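 Plants were sown in alluvial soil held under 0.1–0.5 cm standing water and grown 14 days in a greenhouse at 25–30 °C. An emulsifiable formulation, water-diluted to the set dose, was then sprayed onto the foliage, and effects were scored three weeks later using previously defined criteria.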

Italian ryegrass = experiment: Test Example 5: herbicidal effect by foliage application, plastic box (Table 20, symbol K); assay type: in vivo, Italian ryegrass (Lolium multiflorum); settings: for Herbicidal effect by foliage application, K: Italian ryegrass: amount of applied herbicide 320 g/ha
Procedure, shortened: as §1

southern crabgrass = experiment: Test Example 5: herbicidal effect by foliage application, plastic box (Table 20, symbol F); assay type: in vivo, southern crabgrass (Digitaria ciliaris); settings: for Herbicidal effect by foliage application, F: southern crabgrass: amount of applied herbicide 320 g/ha
Procedure, shortened: as §1

blackgrass = experiment: Test Example 5: herbicidal effect by foliage application, plastic box (Table 20, symbol J); assay type: in vivo, blackgrass (Alopecurus myosuroides); settings: for Herbicidal effect by foliage application, J: blackgrass: amount of applied herbicide 320 g/ha
Procedure, shortened: as §1

velvetleaf = experiment: Test Example 5: herbicidal effect by foliage application, plastic box (Table 20, symbol M); assay type: in vivo, velvetleaf (Abutilon theophrasti); settings: for Herbicidal effect by foliage application, M: velvetleaf: amount of applied herbicide 320 g/ha
Procedure, shortened: as §1

barnyard grass [2] = experiment: Test Example 5: herbicidal effect by foliage application, plastic box (Table 20, symbol H); assay type: in vivo, barnyard grass (Echinochloa crus-galli); settings: for Herbicidal effect by foliage application, H: barnyard grass: amount of applied herbicide 320 g/ha
Procedure, shortened: as §1

wild oat = experiment: Test Example 5: herbicidal effect by foliage application, plastic box (Table 20, symbol I); assay type: in vivo, wild oat (Avena fatua); settings: for Herbicidal effect by foliage application, I: wild oat: amount of applied herbicide 320 g/ha
Procedure, shortened: as §1

green foxtail = experiment: Test Example 5: herbicidal effect by foliage application, plastic box (Table 20, symbol G); assay type: in vivo, green foxtail (Setaria viridis); settings: for Herbicidal effect by foliage application, G: green foxtail: amount of applied herbicide 320 g/ha
Procedure, shortened: as §1

redroot pigweed = experiment: Test Example 5: herbicidal effect by foliage application, plastic box (Table 20, symbol N); assay type: in vivo, redroot pigweed (Amaranthus retroflexus); settings: for Herbicidal effect by foliage application, N: redroot pigweed: amount of applied herbicide 320 g/ha
Procedure, shortened: as §1

windgrass = experiment: Test Example 5: herbicidal effect by foliage application, plastic box (Table 20, symbol L); assay type: in vivo, windgrass (Apera spica-venti); settings: for Herbicidal effect by foliage application, L: windgrass: amount of applied herbicide 320 g/ha
Procedure, shortened: as §1

Chinese sprangletop = experiment: Test Example 3: herbicidal effect by foliage application, Wagner pot (Table 18, symbol D); assay type: in vivo, chinese sprangletop (Leptochloa chinensis); settings: for herbicidal effect on Chinese sprangletop (D): 320 g/ha
Procedure, shortened: as §2

lambsquarters = experiment: Test Example 5: herbicidal effect by foliage application, plastic box (Table 20, symbol O); assay type: in vivo, lambsquarters (Chenopodium album); settings: for Herbicidal effect by foliage application, O: lambsquarters: amount of applied herbicide 320 g/ha
Procedure, shortened: as §1

rice flat sedge = experiment: Test Example 3: herbicidal effect by foliage application, Wagner pot (Table 18, symbol E); assay type: in vivo, rice flat sedge (Cyperus iria); settings: for herbicidal effect on rice flat sedge (E): 320 g/ha
Procedure, shortened: as §2

chickweed = experiment: Test Example 5: herbicidal effect by foliage application, plastic box (Table 20, symbol P); assay type: in vivo, common chickweed (Stellaria media); settings: for Herbicidal effect by foliage application, P: chickweed: amount of applied herbicide 320 g/ha
Procedure, shortened: as §1

[3] = foliage application after 14-day growth, evaluated three weeks after application
[4] = 320 g/ha, foliage application after 14-day growth, evaluated three weeks after application
[5] = foliage application, 320 g/ha, three weeks after application
[6] = amount of applied herbicide 320 g/ha

Structure (SMILES)	Herbicidal effect by foliage application, R: persian speedwell (persian speedwell; [3])	herbicidal effect on barnyard grass (H) (barnyard grass [1])	Herbicidal effect by foliage application, K: Italian ryegrass (Italian ryegrass; [3])	Herbicidal effect by foliage application, F: southern crabgrass (southern crabgrass; [3])	Herbicidal effect by foliage application, J: blackgrass (blackgrass; [3])	Herbicidal effect by foliage application, M: velvetleaf (velvetleaf; [3])	Herbicidal effect by foliage application, H: barnyard grass (barnyard grass [2]; [3])	Herbicidal effect by foliage application, I: wild oat (wild oat; [3])	Herbicidal effect by foliage application, G: green foxtail (green foxtail; [3])	Herbicidal effect by foliage application, N: redroot pigweed (redroot pigweed; [3])	Herbicidal effect by foliage application, L: windgrass (windgrass; [3])	herbicidal effect on Chinese sprangletop (D) (Chinese sprangletop)	Herbicidal effect by foliage application, O: lambsquarters (lambsquarters; [3])	herbicidal effect on rice flat sedge (E) (rice flat sedge)	Herbicidal effect by foliage application, P: chickweed (chickweed; [3])	also measured
CCCC(=O)Oc1c(C)nn(C)c(=O)c1-c1c(-c2ccccc2SCC)sc2c(Cl)cccc12 [4-091]	4 (Herbicidal rate of 70% or more and less than 90%)	5 (Herbicidal rate of 90% or more (almost completely withered))	0 (Herbicidal rate of 5% or less (almost no effect))	4 (Herbicidal rate of 70% or more and less than 90%)	0 (Herbicidal rate of 5% or less (almost no effect))	2 (Herbicidal rate of 20% or more and less than 40%)	3 (Herbicidal rate of 40% or more and less than 70%)	0 (Herbicidal rate of 5% or less (almost no effect))	3 (Herbicidal rate of 40% or more and less than 70%)	3 (Herbicidal rate of 40% or more and less than 70%)	0 (Herbicidal rate of 5% or less (almost no effect))	5 (Herbicidal rate of 90% or more (almost completely withered))	1 (Herbicidal rate of 5% or more and less than 20%)	3 (Herbicidal rate of 40% or more and less than 70%)	0 (Herbicidal rate of 5% or less (almost no effect))	
CCSc1cccc(-c2sc3c(C)cccc3c2-c2c(O)c(C)nn(C)c2=O)c1 [4-122]	4 (Herbicidal rate of 70% or more and less than 90%)	5 (Herbicidal rate of 90% or more (almost completely withered))	4 (Herbicidal rate of 70% or more and less than 90%)	3 (Herbicidal rate of 40% or more and less than 70%)	1 (Herbicidal rate of 5% or more and less than 20%)	4 (Herbicidal rate of 70% or more and less than 90%)	1 (Herbicidal rate of 5% or more and less than 20%)	0 (Herbicidal rate of 5% or less (almost no effect))	1 (Herbicidal rate of 5% or more and less than 20%)	4 (Herbicidal rate of 70% or more and less than 90%)	4 (Herbicidal rate of 70% or more and less than 90%)	0 (Herbicidal rate of 5% or less (almost no effect))	4 (Herbicidal rate of 70% or more and less than 90%)	4 (Herbicidal rate of 70% or more and less than 90%)	5 (Herbicidal rate of 90% or more (almost completely withered))	
CCCC(=O)Oc1c(C)nn(C)c(=O)c1-c1c(-c2ccc(C(C)C)cc2)sc2cc(F)c(F)cc12 [5-006]	1 (Herbicidal rate of 5% or more and less than 20%)	4 (Herbicidal rate of 70% or more and less than 90%)	0 (Herbicidal rate of 5% or less (almost no effect))	0 (Herbicidal rate of 5% or less (almost no effect))	0 (Herbicidal rate of 5% or less (almost no effect))	3 (Herbicidal rate of 40% or more and less than 70%)	0 (Herbicidal rate of 5% or less (almost no effect))	0 (Herbicidal rate of 5% or less (almost no effect))	0 (Herbicidal rate of 5% or less (almost no effect))	3 (Herbicidal rate of 40% or more and less than 70%)	0 (Herbicidal rate of 5% or less (almost no effect))	1 (Herbicidal rate of 5% or more and less than 20%)	3 (Herbicidal rate of 40% or more and less than 70%)	3 (Herbicidal rate of 40% or more and less than 70%)	4 (Herbicidal rate of 70% or more and less than 90%)	
Cc1nn(C)c(=O)c(-c2c(-c3ccc(C(F)(F)F)cc3)sc3c(Cl)cccc23)c1O [4-029]		3 (Herbicidal rate of 40% or more and less than 70%)										0 (Herbicidal rate of 5% or less (almost no effect))		0 (Herbicidal rate of 5% or less (almost no effect))		herbicidal effect on R: persian speedwell (evaluation grade 0-5) (persian speedwell; [4]): 0 (Herbicidal rate of 5% or less (almost no effect)); herbicidal effect on K: Italian ryegrass (evaluation grade 0-5) (Italian ryegrass; [4]): 0 (Herbicidal rate of 5% or less (almost no effect)); herbicidal effect on F: southern crabgrass (evaluation grade 0-5) (southern crabgrass; [4]): 0 (Herbicidal rate of 5% or less (almost no effect)); herbicidal effect on J: blackgrass (evaluation grade 0-5) (blackgrass; [4]): 0 (Herbicidal rate of 5% or less (almost no effect)); herbicidal effect on M: velvetleaf (evaluation grade 0-5) (velvetleaf; [4]): 0 (Herbicidal rate of 5% or less (almost no effect)); herbicidal effect on H: barnyard grass (evaluation grade 0-5) (barnyard grass [2]; [4]): 0 (Herbicidal rate of 5% or less (almost no effect)); herbicidal effect on I: wild oat (evaluation grade 0-5) (wild oat; [4]): 0 (Herbicidal rate of 5% or less (almost no effect)); herbicidal effect on G: green foxtail (evaluation grade 0-5) (green foxtail; [4]): 0 (Herbicidal rate of 5% or less (almost no effect)); herbicidal effect on N: redroot pigweed (evaluation grade 0-5) (redroot pigweed; [4]): 0 (Herbicidal rate of 5% or less (almost no effect)); herbicidal effect on L: windgrass (evaluation grade 0-5) (windgrass; [4]): 4 (Herbicidal rate of 70% or more and less than 90%); herbicidal effect on O: lambsquarters (evaluation grade 0-5) (lambsquarters; [4]): 3 (Herbicidal rate of 40% or more and less than 70%); herbicidal effect on P: chickweed (evaluation grade 0-5) (chickweed; [4]): 5 (Herbicidal rate of 90% or more (almost completely withered))
Cc1nn(C)c(=O)c(-c2c(-c3ccc(Oc4ncc(C(F)(F)F)cc4Cl)cc3)sc3ccc(F)cc23)c1O [2-467]																R: persian speedwell, herbicidal effect grade (persian speedwell; [5]): 4 (Herbicidal rate of 70% or more and less than 90%); herbicidal effect on H: barnyard grass (barnyard grass [1]; [6]): 3 (Herbicidal rate of 40% or more and less than 70%); K: Italian ryegrass, herbicidal effect grade (Italian ryegrass; [5]): 0 (Herbicidal rate of 5% or less (almost no effect)); F: southern crabgrass, herbicidal effect grade (southern crabgrass; [5]): 0 (Herbicidal rate of 5% or less (almost no effect)); J: blackgrass, herbicidal effect grade (blackgrass; [5]): 0 (Herbicidal rate of 5% or less (almost no effect)); M: velvetleaf, herbicidal effect grade (velvetleaf; [5]): 1 (Herbicidal rate of 5% or more and less than 20%); H: barnyard grass, herbicidal effect grade (barnyard grass [2]; [5]): 1 (Herbicidal rate of 5% or more and less than 20%); I: wild oat, herbicidal effect grade (wild oat; [5]): 0 (Herbicidal rate of 5% or less (almost no effect)); G: green foxtail, herbicidal effect grade (green foxtail; [5]): 2 (Herbicidal rate of 20% or more and less than 40%); N: redroot pigweed, herbicidal effect grade (redroot pigweed; [5]): 3 (Herbicidal rate of 40% or more and less than 70%); L: windgrass, herbicidal effect grade (windgrass; [5]): 5 (Herbicidal rate of 90% or more (almost completely withered)); herbicidal effect on D: Chinese sprangletop (Chinese sprangletop; [6]): 4 (Herbicidal rate of 70% or more and less than 90%); O: lambsquarters, herbicidal effect grade (lambsquarters; [5]): 4 (Herbicidal rate of 70% or more and less than 90%); herbicidal effect on E: rice flat sedge (rice flat sedge; [6]): 4 (Herbicidal rate of 70% or more and less than 90%); P: chickweed, herbicidal effect grade (chickweed; [5]): 3 (Herbicidal rate of 40% or more and less than 70%)
